Laboratory results from patent US11559490B2, “Pharmaceutical formulation” (Merck Patent GmbH, priority 2017, dated 2023).

How the values were obtained:
NCI-H460 = settings: 150 mg/kg oral, 10 min prior to each 2 Gy fraction, 5 days (10 Gy)
Experimental: (§1) The therapeutic relevance of DNA-PK inhibition by the drug substance as such was investigated in vivo in combination with ionizing radiation (IR), a clinically established DSB-inducing treatment. The drug substance was tested for activity in six xenograft mouse models of human cancer. The models were chosen from different cancer indications (colon, lung, head and neck, pancreatic), and histological subtypes (adeno, squamous, large cell). Ionizing radiation was administered using a fractionated schedule of 2 Gy per day administered over five consecutive days (total radiation dose=10 Gy). […] 10 min prior to each fraction of radiation (ONC397-1-2AZ, ONC397-1-3AZ, ONC397-1-4AZ, ONC397-1-5AZ, ONC397-1-8AZ).
(§2) The radiotherapy enhancing effect was quantified across the tested models by the time to reaching 400% initial volume for the 150 mg/kg study arms. The resulting Kaplan-Meier plots were compared by the log-rank test.

HCT116 = settings: 150 mg/kg oral, 10 min prior to each 2 Gy fraction, 5 days (10 Gy)
Experimental: as §1, §2

A549 = settings: 150 mg/kg oral, 10 min prior to each 2 Gy fraction, 5 days (10 Gy)
Experimental: as §1, §2

[1] = Solubility of drug substance in water and simulated gastric fluids; format: physicochemical
[2] = tested on: six xenograft mouse models of human cancer; test: Xenograft mouse models of human cancer, combination with ionizing radiation; format: in vivo; settings: all models, oral administration with fractionated radiation 2 Gy x 5
Experimental: as §1, §2

[3] = target: DNA-dependent protein kinase (DNA-PK) (Homo sapiens, UniProt P78527); settings: cited from earlier work
[4] = tested on: DNA-PK autophosphorylation in cancer cell lines; settings: cited from earlier work

## COc1ccc([C@@H](O)c2cc(-c3ncnc4cc(N5CCOCC5)ccc34)c(F)cc2Cl)nn1 [drug substance, (S)-[2-chloro-4-fluoro-5-(7-morpholin-4-yl-quinazolin-4-yl)phenyl]-(6-methoxy-pyridazin-3-yl)methanol]
NCI-H460
  enhancement ratio (time to reaching 400% initial volume): 2.6
HCT116
  enhancement ratio (time to reaching 400% initial volume): 1.5
A549
  enhancement ratio (time to reaching 400% initial volume): 1.5
[1]
  solubility in water and simulated gastric fluids: poor solubility
[2]
  enhancement of the radiation effect: strong enhancement of the radiation effect
[3]
  inhibition of DNA-PK activity: potent and selective inhibitor
[4]
  inhibition of DNA-PK autophosphorylation: potent inhibition
